Laboratory results from publication PMC4042160, “In silico, in vitro and cellular analysis with a kinome-wide inhibitor panel correlates cellular LRRK2 dephosphorylation to inhibitor activity on LRRK2” (Frontiers in Molecular Neuroscience, 2014).

What was measured:
LRRK2 phospho-Ser935 = target: T1, LRRK2 phospho-Ser935 (Homo sapiens, UniProt Q5S007); test: Cellular LRRK2 phosphoserine 935 dephosphorylation spotblot assay in SH-SY5Y cells stably expressing 3xFlag-LRRK2; format: cell-based; settings: for Phosphorylation level relative to solvent (%) (cellular pS935 assay): @ 5 μM for 2 h, SH-SY5Y stably expressing LRRK2, pS935/total LRRK2; for dephosphorylation of LRRK2 (Ser935): 5 μM, 2 h, SH-SY5Y
T1 construct: expressed in transfected cells
T1 sequence (Q5S007 whole entry): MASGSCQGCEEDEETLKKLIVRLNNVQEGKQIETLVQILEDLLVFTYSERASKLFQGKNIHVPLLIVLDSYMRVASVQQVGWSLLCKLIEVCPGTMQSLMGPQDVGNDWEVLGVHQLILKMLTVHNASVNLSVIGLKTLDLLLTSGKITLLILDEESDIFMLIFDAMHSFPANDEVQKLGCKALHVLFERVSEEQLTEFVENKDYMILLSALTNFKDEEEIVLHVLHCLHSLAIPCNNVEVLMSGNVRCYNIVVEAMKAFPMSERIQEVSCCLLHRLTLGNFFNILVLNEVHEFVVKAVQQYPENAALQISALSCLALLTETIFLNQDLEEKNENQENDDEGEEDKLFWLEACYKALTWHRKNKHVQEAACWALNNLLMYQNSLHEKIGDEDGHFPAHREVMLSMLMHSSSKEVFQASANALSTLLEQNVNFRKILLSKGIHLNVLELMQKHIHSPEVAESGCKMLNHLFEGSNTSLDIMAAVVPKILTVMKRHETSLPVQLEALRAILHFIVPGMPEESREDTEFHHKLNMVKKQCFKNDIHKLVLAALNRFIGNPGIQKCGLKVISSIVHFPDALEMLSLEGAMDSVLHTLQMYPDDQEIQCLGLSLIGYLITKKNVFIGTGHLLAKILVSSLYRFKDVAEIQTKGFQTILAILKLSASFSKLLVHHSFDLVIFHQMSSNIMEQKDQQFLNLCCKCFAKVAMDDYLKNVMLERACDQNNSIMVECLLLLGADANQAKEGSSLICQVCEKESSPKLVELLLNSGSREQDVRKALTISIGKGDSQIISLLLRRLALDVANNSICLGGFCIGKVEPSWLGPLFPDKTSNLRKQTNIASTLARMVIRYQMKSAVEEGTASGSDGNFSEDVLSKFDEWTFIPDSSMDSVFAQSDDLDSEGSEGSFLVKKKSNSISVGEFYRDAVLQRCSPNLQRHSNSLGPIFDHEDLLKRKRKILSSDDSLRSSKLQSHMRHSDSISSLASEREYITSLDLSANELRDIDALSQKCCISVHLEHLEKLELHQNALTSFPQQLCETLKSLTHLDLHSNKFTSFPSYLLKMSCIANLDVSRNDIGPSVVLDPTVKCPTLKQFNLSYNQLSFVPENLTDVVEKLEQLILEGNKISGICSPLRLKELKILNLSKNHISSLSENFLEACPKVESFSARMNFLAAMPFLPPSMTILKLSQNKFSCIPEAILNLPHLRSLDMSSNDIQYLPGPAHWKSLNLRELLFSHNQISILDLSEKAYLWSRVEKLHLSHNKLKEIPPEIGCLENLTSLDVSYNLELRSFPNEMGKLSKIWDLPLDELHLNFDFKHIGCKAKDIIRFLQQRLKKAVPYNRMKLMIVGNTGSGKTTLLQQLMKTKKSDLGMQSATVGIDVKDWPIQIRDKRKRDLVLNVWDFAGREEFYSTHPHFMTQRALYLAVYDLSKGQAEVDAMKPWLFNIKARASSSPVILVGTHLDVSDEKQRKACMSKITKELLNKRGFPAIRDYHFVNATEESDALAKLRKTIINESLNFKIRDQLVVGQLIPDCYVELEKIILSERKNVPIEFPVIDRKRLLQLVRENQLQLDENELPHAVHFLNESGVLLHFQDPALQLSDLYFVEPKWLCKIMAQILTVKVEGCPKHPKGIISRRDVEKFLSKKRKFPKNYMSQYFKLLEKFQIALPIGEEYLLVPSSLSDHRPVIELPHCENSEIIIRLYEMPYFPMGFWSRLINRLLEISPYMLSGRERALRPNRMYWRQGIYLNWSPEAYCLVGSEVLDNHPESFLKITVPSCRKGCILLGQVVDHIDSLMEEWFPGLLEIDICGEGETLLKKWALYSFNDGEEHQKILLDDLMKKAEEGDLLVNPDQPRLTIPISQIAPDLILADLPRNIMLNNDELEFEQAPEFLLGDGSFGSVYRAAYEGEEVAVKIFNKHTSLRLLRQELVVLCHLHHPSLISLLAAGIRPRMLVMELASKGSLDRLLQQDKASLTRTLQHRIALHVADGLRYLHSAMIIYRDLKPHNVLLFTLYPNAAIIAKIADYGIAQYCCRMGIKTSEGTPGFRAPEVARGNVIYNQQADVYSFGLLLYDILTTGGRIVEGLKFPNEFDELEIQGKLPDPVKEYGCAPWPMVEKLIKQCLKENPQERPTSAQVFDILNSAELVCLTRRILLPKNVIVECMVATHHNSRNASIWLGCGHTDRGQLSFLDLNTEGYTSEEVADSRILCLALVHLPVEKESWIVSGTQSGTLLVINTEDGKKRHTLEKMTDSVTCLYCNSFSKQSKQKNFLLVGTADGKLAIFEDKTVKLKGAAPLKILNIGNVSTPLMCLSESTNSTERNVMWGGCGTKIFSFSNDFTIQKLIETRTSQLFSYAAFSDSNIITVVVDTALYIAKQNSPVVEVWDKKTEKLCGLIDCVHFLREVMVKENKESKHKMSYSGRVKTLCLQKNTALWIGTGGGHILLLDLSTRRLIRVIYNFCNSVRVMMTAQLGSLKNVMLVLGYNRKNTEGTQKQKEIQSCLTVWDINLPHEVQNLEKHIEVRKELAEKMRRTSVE

[1] = target: T2, GST-tagged truncated LRRK2 containing residues 970 to 2527 (Homo sapiens, UniProt Q5S007); test: In vitro LRRKtide peptide-substrate kinase assay, single dose testing (10 μM); format: biochemical; settings: for % LRRKtide phosphorylation relative to solvent: LRRKtide assay @ 10 μM inhibitor, GST-LRRK2 970-2527, 10 μM ATP, mean, N = 3, solvent control = 100%; for activity on LRRK2 kinase activity in vitro (in words): no activity at 10 μM
T2 construct: GST-tagged truncated LRRK2 containing residues 970 to 2527 (Life Technologies); purchased Life Technologies
T2 sequence (Q5S007 970-2527): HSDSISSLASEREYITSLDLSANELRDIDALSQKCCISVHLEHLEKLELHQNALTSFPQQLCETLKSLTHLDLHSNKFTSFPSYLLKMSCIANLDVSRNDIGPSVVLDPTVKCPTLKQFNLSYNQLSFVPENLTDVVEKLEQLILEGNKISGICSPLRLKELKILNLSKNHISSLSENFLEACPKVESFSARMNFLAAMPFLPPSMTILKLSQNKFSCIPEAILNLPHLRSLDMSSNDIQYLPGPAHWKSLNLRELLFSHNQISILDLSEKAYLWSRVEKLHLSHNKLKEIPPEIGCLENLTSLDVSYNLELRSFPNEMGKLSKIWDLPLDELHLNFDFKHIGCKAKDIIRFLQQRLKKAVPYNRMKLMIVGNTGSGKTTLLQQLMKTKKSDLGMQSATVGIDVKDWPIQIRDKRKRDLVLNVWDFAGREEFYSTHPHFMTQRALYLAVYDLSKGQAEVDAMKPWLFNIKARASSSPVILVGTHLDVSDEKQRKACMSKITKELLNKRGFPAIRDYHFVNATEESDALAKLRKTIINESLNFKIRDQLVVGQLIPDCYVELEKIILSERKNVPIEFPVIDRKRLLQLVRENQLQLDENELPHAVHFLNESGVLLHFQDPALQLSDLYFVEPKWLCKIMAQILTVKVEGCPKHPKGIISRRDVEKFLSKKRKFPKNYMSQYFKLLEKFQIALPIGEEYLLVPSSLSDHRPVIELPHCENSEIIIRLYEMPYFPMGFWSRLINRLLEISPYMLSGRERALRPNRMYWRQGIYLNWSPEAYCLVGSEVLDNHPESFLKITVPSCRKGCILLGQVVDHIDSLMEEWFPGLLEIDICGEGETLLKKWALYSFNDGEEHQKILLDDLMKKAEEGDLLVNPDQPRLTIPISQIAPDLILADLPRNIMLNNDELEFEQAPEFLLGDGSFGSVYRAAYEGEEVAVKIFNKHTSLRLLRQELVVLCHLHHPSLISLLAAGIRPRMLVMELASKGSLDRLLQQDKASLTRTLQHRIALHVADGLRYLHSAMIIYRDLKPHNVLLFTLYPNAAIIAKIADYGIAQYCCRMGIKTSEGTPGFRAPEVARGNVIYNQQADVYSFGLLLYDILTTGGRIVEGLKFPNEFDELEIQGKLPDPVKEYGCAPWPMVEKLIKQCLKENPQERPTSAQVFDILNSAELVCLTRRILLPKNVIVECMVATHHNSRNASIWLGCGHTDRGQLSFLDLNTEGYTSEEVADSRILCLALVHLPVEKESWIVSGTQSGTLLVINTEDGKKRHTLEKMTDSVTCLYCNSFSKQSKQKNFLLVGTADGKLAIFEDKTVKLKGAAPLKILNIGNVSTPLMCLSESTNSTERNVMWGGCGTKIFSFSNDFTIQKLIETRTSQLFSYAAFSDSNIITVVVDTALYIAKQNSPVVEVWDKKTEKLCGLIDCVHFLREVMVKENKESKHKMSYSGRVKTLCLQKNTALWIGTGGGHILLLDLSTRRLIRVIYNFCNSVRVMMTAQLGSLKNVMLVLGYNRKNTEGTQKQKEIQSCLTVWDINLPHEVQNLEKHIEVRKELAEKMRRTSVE

| Compound | Phosphorylation level relative to solvent (%) (cellular pS935 assay) (LRRK2 phospho-Ser935) | % LRRKtide phosphorylation relative to solvent [1] [%] | dephosphorylation of LRRK2 (Ser935) (LRRK2 phospho-Ser935) | activity on LRRK2 kinase activity in vitro (in words) [1] | Cellular pS935 (% @ 5 μM) (LRRK2 phospho-Ser935; pS935 level as % of control, 5 μM for 2 h, SH-SY5Y cells with stable expression of LRRK2) [%] |
| --- | --- | --- | --- | --- | --- |
| O=C(O)/C=C/c1cc(Br)c(Br)c(Br)c1Br [Casein kinase II inhibitor III, TBCA, TBCA] | 116.47 | 16.78 |  |  |  |
| N#C/C(=C(/N)Sc1ccc(N)cc1)c1ccccc1C(F)(F)F [MEK 1/2 inhibitor] | 117.92 | 61.26 |  |  |  |
| COC(=O)[C@@]1(O)C[C@H]2O[C@]1(C)n1c3ccccc3c3c4c(c5c6ccccc6n2c5c31)C(=O)NC4 [K-252a, Nocardiopsis sp., K-252a] | 72.18 | 1.13 |  |  |  |
| CO[C@H]1C[C@@H]2CC[C@@H](C)[C@@](O)(O2)C(=O)C(=O)N2CCCC[C@H]2C(=O)O[C@H]([C@H](C)C[C@@H]2CC[C@@H](O)[C@H](OC)C2)CC(=O)[C@H](C)/C=C(\C)[C@@H](O)[C@@H](OC)C(=O)[C@H](C)C[C@H](C)/C=C/C=C/C=C/1C [Rapamycin] | 65.24 | 101.20 |  |  |  |
| PDK1/Akt/Flt dual pathway inhibitor | 57.20 | 5.76 |  |  |  |
| Cc1cccc(-c2[nH]c(C(C)(C)C)nc2-c2ccc3c(c2)OCO3)n1 [TGF-b RI inhibitor III] | 57.95 | 104.37 |  |  |  |
| O=c1cc(N2CCOCC2)oc2c(-c3ccccc3)cccc12 [LY 294002] | 74.17 | 90.73 |  |  |  |
| O=c1cc(-c2cccc3c2Sc2ccccc2S3)oc(N2CCOCC2)c1 [ATM kinase inhibitor] | 103.28 | 86.09 |  |  |  |
| Cc1cncc2cccc(S(=O)(=O)N3CCCN(C(=O)CN)C[C@@H]3C)c12 [Rho kinase inhibitor IV] | 59.98 | 10.29 |  |  |  |
| O=C(Nc1nc2ccccc2n1CCN1CCOCC1)c1cccc([N+](=O)[O-])c1 [IRAK-1/4 inhibitor] | 71.83 | 55.78 |  |  |  |
| O=C(c1ccccc1)c1ccc(N2CCOCC2)cc1O [DNA-PK inhibitor V] | 48.36 | 89.01 | ~ 50% | inactive |  |
| CCCNC(=O)Nc1ccc(Oc2ncnc3cc(OC)c(OC)cc23)cc1Cl [KRN63] | 62.48 | 68.07 |  |  |  |
| O=C1NC(=O)C(c2cn(CCCn3ccnc3)c3ccccc23)=C1Nc1ccccc1 [PKCb inhibitor] | 86.12 | 3.56 |  |  |  |
| O=C(O)c1ccc2c3c1cccc3c(=O)n1c3ccccc3nc21 [STO-609] | 121.51 | 15.01 |  |  |  |
| O=C1Cc2c([nH]c3ccc(Br)cc23)-c2ccccc2N1 [Kenpaullone] | 94.10 | 47.16 |  |  |  |
| Cc1cc2ncc(-c3ccccc3)nc2cc1C [AG 1295] | 49.08 | 89.08 |  |  |  |
| O=c1cc(N2CCNCC2)oc2c(-c3ccccc3)cccc12 [LY 303511] | 47.60 | 107.82 | ~ 50% | inactive |  |
| CC[n+]1c(/C=C/N(C)c2ccccc2)n(-c2ccccc2)c2ccc(-c3nc4ccccc4s3)cc21.[I-] [Akt inhibitor IV] | 76.44 | 18.59 |  |  |  |
| Cc1cc(Nc2nc(-c3ccccc3)nc3ccccc23)n[nH]1 [GSK-3 inhibitor XIII] | 73.51 | 3.34 |  |  |  |
| Cn1sc(=O)n(Cc2ccccc2)c1=O [GSK-3b inhibitor I] | 95.90 | 106.35 |  |  |  |
| CNc1cc2c(Nc3cccc(Br)c3)ncnc2cn1 [PD 158780] | 80.85 | 6.06 |  |  |  |
| COc1ccc(-c2cnc3c(-c4ccsc4)cnn3c2)cc1 [VEGF receptor 2 kinase inhibitor IV] | 48.48 | 77.83 |  |  |  |
| O=C1NC(=O)C(c2cn(CCCO)c3ncccc23)=C1c1cnccn1 [GSK-3b inhibitor XI] | 87.77 | 32.34 |  |  |  |
| CSc1nc(-c2ccnc(NC(C)c3ccccc3)c2)c(-c2ccc(F)cc2)[nH]1 (stereo not shown) [p38 MAP kinase inhibitor III] | 83.74 | 112.29 |  |  |  |

| Compound | Phosphorylation level relative to solvent (%) (cellular pS935 assay) (LRRK2 phospho-Ser935) | % LRRKtide phosphorylation relative to solvent [1] [%] | dephosphorylation of LRRK2 (Ser935) (LRRK2 phospho-Ser935) | activity on LRRK2 kinase activity in vitro (in words) [1] | Cellular pS935 (% @ 5 μM) (LRRK2 phospho-Ser935; pS935 level as % of control, 5 μM for 2 h, SH-SY5Y cells with stable expression of LRRK2) [%] |
| --- | --- | --- | --- | --- | --- |
| PI 3-KbInhibitor II | 66.60 | 93.55 |  |  |  |
| O=c1c2ccccc2[nH]c(=S)n1CCN1CCC(=C(c2ccc(F)cc2)c2ccc(F)cc2)CC1 [Diacylglycerol kinase inhibitor II] | 84.54 | 119.82 |  |  |  |
| CN[C@@H]1C[C@H]2O[C@@](C)([C@@H]1OC)n1c3ccccc3c3c4c(c5c6ccccc6n2c5c31)C(=O)NC4 [Staurosporine, Streptomyces sp., Staurosporine] |  |  |  |  | 8.89 |
| Nc1ncnc2c1cnn2-c1ccccc1 [PP3] | 84.67 | 68.38 |  |  |  |
| CCN(CC)C(=O)c1ccc(Nc2nc(OCC3CCCCC3)c3[nH]cnc3n2)cc1 [Cdk2 inhibitor IV, NU6140, NU6140] | 34.63 | 0.98 |  |  |  |
| Nc1ncnc2n[nH]c(Nc3ccc(F)cc3)c12 [MNK1 inhibitor] | 70.32 | 12.59 |  |  |  |
| N/C(=N\[N+](=O)[O-])N/N=C\c1ccc(-c2cccc([N+](=O)[O-])c2)o1 [ERK inhibitor III] | 90.93 | 55.32 |  |  |  |
| C[C@@H](N)[C@H]1CC[C@H](C(=O)Nc2ccncc2)CC1 [ROCK inhibitor, Y-27632, Y-27632] | 69.28 | 10.36 |  |  |  |
| CCc1[nH]c(-c2ccc(OC)cc2)nc1-c1ccncc1 [SB 202474] | 112.24 | 47.64 |  |  |  |
| COc1cc2nccc(Oc3ccc(NC(=S)NC(=O)c4ccccc4C)cc3)c2cc1OC [PDGF RTK inhibitor] | 77.68 | 34.30 |  |  |  |
| O=C1Cc2c([nH]c3ccc([N+](=O)[O-])cc23)-c2ccccc2N1 [Alsterpaullone] | 108.54 | 31.34 |  |  |  |
| O=C1c2ccccc2-[n+]2ccc3c([nH]c4ccccc43)c21 [Fascaplysin, synthetic, Fascaplysin] | 45.44 | 17.51 |  |  |  |
| Nc1nc(Nc2ccc(S(N)(=O)=O)cc2)nn1C(=O)c1c(F)cccc1F [Aurora kinase/Cdk inhibitor] | 45.67 | 1.21 |  |  |  |
| O=C1NC(=O)c2c1c1c3ccccc3[nH]c1n1cncc21 [Isogranulatimide] | 77.38 | 4.64 |  |  |  |
| GTP-14564 | 71.63 | 18.03 |  |  |  |
| Nc1ncnc2c1c(-c1ccc(Oc3ccccc3)cc1)cn2C1CCCC1 [Lck inhibitor] | 61.54 | 15.36 |  |  |  |
| Oc1ccc(-c2nc(-c3ccncc3)c(-c3ccc(F)cc3)[nH]2)cc1 [SB 202190] | 88.12 | 45.07 |  |  |  |
| N#CCCc1ccc2c(c1)-c1[nH]c3ccc([N+](=O)[O-])cc3c1CC(=O)N2 [Alsterpaullone, 2-Cyanoethyl] | 96.84 | 10.82 |  |  |  |
| CCCC(=O)Oc1ccc2[nH]c(C(=O)c3cc4ccccc4[nH]3)cc2c1 [PDGF receptor tyrosine kinase inhibitor II] | 65.41 | 93.77 |  |  |  |
| O=C1NC(=O)/C(=C/c2ccc3nccnc3c2)S1 [PI 3-Kg inhibitor] | 79.50 | 62.51 |  |  |  |
| O=C(Nc1ccc(Cl)cc1)c1ccccc1NCc1ccncc1 [VEGF receptor tyrosine kinase inhibitor II] | 65.97 | 91.34 |  |  |  |
| O=C1NC(=O)c2c1c1c3ccccc3[nH]c1c1[nH]c3cc(Br)ccc3c21 [Cdk4 inhibitor] | 49.88 | 6.82 |  |  |  |
| c1ccc(-c2cnc(Nc3ccc(OCCN4CCCC4)cc3)s2)cc1 [Flt-3 inhibitor III] | 54.21 | 12.56 |  |  |  |
